This is an account of results in US20190110476A1, “NOVEL ISOTHIAZOLAMIDES, PROCESSES FOR THEIR PREPARATION AND THEIR USE AS FUNGICIDES” (priority 2014, published 2019).

Marks after values point to notes of the source that are not given here.

The nature of this data set: Measurement of LogP values by HPLC on reversed phase columns (EEC directive 79/831 Annex V.A8). In kind it is physicochemical. An outline of the steps: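 Following EEC directive 79/831 Annex V.A8, lipophilicity was derived from retention on reversed-phase HPLC columns. Separate values are given per diastereoisomer, and UV lambda-max (200–400 nm) was read at the peak signals.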
Regarding `Nc1nsc(C(=O)N(Cc2ccc(Cl)cc2Cl)CC2CC2)c1Cl` [I-212], the LogP is 3.74[a].

`CC(C)N(Cc1ccc(Cl)cc1Cl)C(=O)c1snc(N)c1Cl` [I-213]: the LogP is 3.71[a]. The figure for `CC1(C)CC1N(Cc1ccc(Cl)cc1Cl)C(=O)c1snc(N)c1Cl` (stereo not shown) [I-214] is 4.12[a].

For `Nc1nsc(C(=O)N(Cc2c(Cl)cccc2C(F)(F)F)C2CC2)c1Cl` [I-215], the LogP was 3.19[a]. Under `Nc1nsc(C(=O)N(Cc2cc(Cl)cc(C(F)(F)F)c2)C2CC2)c1Cl` [I-216] stands 3.53[a]; under `COc1ccc(CNc2nsc(C(=O)NCc3ccc(F)cc3C(F)(F)F)c2Cl)cc1` [I-220], 4.18[a].

For the molecule `COc1ccc(CNc2nsc(C(=O)NCc3ccc(Oc4ccccc4)cc3)c2Cl)cc1` [I-221], the LogP was 4.41[a].

Regarding `COc1ccc(CNc2nsc(C(=O)NCc3ccc(Oc4ccc(F)cc4)cc3)c2Cl)cc1` [I-222], the LogP is 4.44[a]. The figure for `COc1ccc(CNc2nsc(C(=O)NCc3ccc(F)c(Oc4ccccc4)c3)c2Cl)cc1` [I-223] is 4.34[a]; for `COc1ccc(CNc2nsc(C(=O)NCc3ccc(OC)c(F)c3)c2Cl)cc1` [I-224] it is 3.44[a]; for `COc1ccc(CNc2nsc(C(=O)NCc3ccc(Cl)cc3F)c2Cl)cc1` [I-225] it is 4.03[a]. Under `Nc1nsc(C(=O)NCc2ccc(Oc3ccccc3)cc2)c1Cl` [I-227] stands 2.94[a]; under `COc1ccc(CNc2nsc(C(=O)NCc3cccc(OC)c3F)c2Cl)cc1` [I-236], 3.46[a]. With `Nc1nsc(C(=O)NCc2ccc(F)c(Oc3ccccc3)c2)c1Cl` [I-237], the LogP was 2.90[a].

For `Nc1nsc(C(=O)NCc2ccc(Oc3ccc(F)cc3)cc2)c1Cl` [I-238], the LogP was 3.00[a]. Regarding `COC(=O)Nc1nsc(C(=O)NCc2ccccc2F)c1Cl` [I-239], the LogP is 1.98[a].

As to `COc1ccc(CNC(=O)c2snc(N)c2Cl)cc1F` [I-240], the LogP is 1.91[a]. The figure for `COc1ccc(CNc2nsc(C(=O)NCc3ccc(Cl)cc3)c2Cl)cc1` [I-242] is 3.99[a]; for `CC1(C)CC(CNC(=O)c2snc(N)c2Cl)C1` [I-243] it is 2.49[a]; for `C[C@H](NC(=O)c1snc(N(Cc2ccccc2)Cc2ccccc2)c1C(F)F)C1CCCCC1` [I-263] it is 6.20[a]. Turning to `C[C@H](NC(=O)c1snc(N(Cc2ccccc2)Cc2ccccc2)c1C1CC1)C1CCCCC1` [I-264], the LogP is 6.20[a]. Under `COc1ccc(CNc2nsc(C(=O)NC3CCCCC3c3ccccc3)c2Cl)cc1` (stereo not shown) [I-267] stands 4.69[a]. As to `COc1ccc(CNc2nsc(C(=O)NCc3ncc(C(F)(F)F)cc3Cl)c2Cl)cc1` [I-268], the LogP is 4.29[a]. Under `COc1ccc(CNc2nsc(C(=O)NC3CCCC3c3ccccc3)c2Cl)cc1` (stereo not shown) [I-269] stands 4.41[a]; under `C[C@H](NC(=O)c1snc(N)c1C(F)F)C1CCCCC1` [I-270], 2.96[a]. Under `C[C@H](NC(=O)c1snc(N)c1C1CC1)C1CCCCC1` [I-271] stands 2.68[a]; under `O=C(NCc1ccc(F)cc1F)c1snc(NC(=O)C(F)(F)F)c1Cl` [I-280], 2.64[a]. In the case of `Nc1cc(C(=O)NCc2cccc(Cl)c2)sn1` [I-281], the LogP was 1.78[a]. As for `Nc1cc(C(=O)NCc2ccccc2Cl)sn1` [I-282], the LogP is 1.69[a]. On to `O=C(NCc1cccc(Cl)c1)c1cc(N(Cc2ccccc2)Cc2ccccc2)ns1` [I-283], for which the LogP was 4.71[a]. For the molecule `O=C(NCc1ccccc1Cl)c1cc(N(Cc2ccccc2)Cc2ccccc2)ns1` [I-284], the LogP was 4.67[a].

Turning to `O=C(NCc1cc(F)cc(F)c1)c1cc(N(Cc2ccccc2)Cc2ccccc2)ns1` [I-285], the LogP is 4.53[a]. Under `Nc1nsc(C(=O)NCc2ncc(C(F)(F)F)cc2Cl)c1Cl` [I-286] stands 2.58[a]; under `Nc1nsc(C(=O)NC2CCCCC2c2ccccc2)c1Cl` (stereo not shown) [I-287], 3.02[a]. `Nc1nsc(C(=O)NC2CCCC2c2ccccc2)c1Cl` (stereo not shown) [I-288]: the LogP was 2.71[a].

`O=C(NCc1ncc(C(F)(F)F)cc1Cl)c1snc(NC(=O)C2CC2)c1Cl` [I-296]: the LogP is 2.71[a]. Under `O=C(NC1CCCC1c1ccccc1)c1snc(NC(=O)C2CC2)c1Cl` (stereo not shown) [I-297] stands 2.86[a]. Under `O=C(NC1CCCCC1c1ccccc1)c1snc(NC(=O)C2CC2)c1Cl` (stereo not shown) [I-302] stands 3.19[a]; under `Nc1cc(C(=O)NCc2cc(F)cc(F)c2)sn1` [I-303], 4.55[a]. The figure for `Nc1cc(C(=O)NCc2cccc(F)c2)sn1` [I-304] is 1.46[a].

Consider `Nc1cc(C(=O)NCc2ccccc2F)sn1` [I-305], for which the LogP was 1.41[a].

For the molecule `Nc1cc(C(=O)NCc2ccc(Cl)cc2Cl)sn1` [I-306], the LogP is 2.11[a]. Turning to `Nc1cc(C(=O)NCc2cc(Cl)cc(Cl)c2)sn1` [I-307], the LogP was 2.18[a]. For the molecule `Nc1cc(C(=O)NCc2cccc(Cl)c2Cl)sn1` [I-308], the LogP is 2.02[a]. Regarding `O=C(NCc1ccc(F)cc1)c1cc(N(Cc2ccccc2)Cc2ccccc2)ns1` [I-309], the LogP was 4.36[a].

Turning to `O=C(NCc1cccc(F)c1)c1cc(N(Cc2ccccc2)Cc2ccccc2)ns1` [I-310], the LogP was 4.40[a]. Take `O=C(NCc1ccccc1F)c1cc(N(Cc2ccccc2)Cc2ccccc2)ns1` [I-311]: the LogP is 4.38[a]. As for `O=C(NCc1cc(Cl)cc(Cl)c1)c1cc(N(Cc2ccccc2)Cc2ccccc2)ns1` [I-312], the LogP is 2.90[a]. On to `O=C(NCc1cccc(Cl)c1Cl)c1cc(N(Cc2ccccc2)Cc2ccccc2)ns1` [I-313], for which the LogP is 5.01[a]. The figure for `O=C(NCc1ccc(Cl)cc1)c1cc(N(Cc2ccccc2)Cc2ccccc2)ns1` [I-314] is 4.85[a]; for `CC(NC(=O)c1snc(N(Cc2ccccc2)Cc2ccccc2)c1-c1ccc(F)cc1)C1CCCCC1` (stereo not shown) [I-317] it is 6.63[a]; for `O=C(NCC1CCCCC1)c1snc(N(Cc2ccccc2)Cc2ccccc2)c1-c1ccc(F)cc1` [I-318] it is 6.27[a]. Under `O=C(NC1CCCCC1)c1snc(N(Cc2ccccc2)Cc2ccccc2)c1-c1ccc(F)cc1` [I-319] stands 5.98[a]; under `O=C(NCc1ccccc1F)c1snc(N(Cc2ccccc2)Cc2ccccc2)c1-c1ccc(F)cc1` [I-320], 5.45[a]; under `O=C(NCc1ccc(Cl)cc1)c1snc(N(Cc2ccccc2)Cc2ccccc2)c1-c1ccc(F)cc1` [I-321], 5.72[a]. As to `O=C(NCc1ccc(F)cc1F)c1cc(N(Cc2ccccc2)Cc2ccccc2)ns1` [I-322], the LogP was 4.45[a]. For `O=C(NCc1ccc(Cl)cc1Cl)c1cc(N(Cc2ccccc2)Cc2ccccc2)ns1` [I-323], the LogP is 5.17[a].

Consider `Nc1nsc(C(=O)NCc2ccc(F)cc2C(F)(F)F)c1Cl` [I-324], for which the LogP is 2.61[a].

For `COc1cccc(CNC(=O)c2snc(N)c2Cl)c1F` [I-325], the LogP is 1.91[a].

Regarding `Cc1ccc(C)c(CNC(=O)c2snc(N)c2Cl)c1` [I-326], the LogP was 2.50[a]. Take `Nc1nsc(C(=O)NCc2cc(Cl)ccc2C(F)(F)F)c1Cl` [I-327]: the LogP is 2.88[a].
